Reference: ChEMBL document CHEMBL1201862, “PubChem BioAssay data set” (2004)
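Cultured in 96-well plates, cells were exposed to test compound for 48 hours across five concentrations. Here, GI50 denotes the concentration required for 50% inhibition of growth.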 The source made the active and inactive calls. Rule as the data show it: active = GI50 up to about 1.1 µM and inactive = higher.

Experiments:
Experiment in all cases: DTP human tumour cell line panel, 48 h
[1] = test system: NCI-H522
[2] = test system: MOLT-4
[3] = test system: SR
[4] = test system: OVCAR-8
[5] = test system: ACHN
[6] = test system: HCT-116
[7] = test system: Hs-578T
[8] = test system: SN12C
[9] = test system: Malme-3M
[10] = test system: NCI-H460
[11] = test system: MDA-MB-231
[12] = test system: HT-29
[13] = test system: 786-0
[14] = test system: MDA-N
[15] = test system: SK-MEL-2
[16] = test system: BT-549
[17] = test system: UACC-257
[18] = test system: SW-620
[19] = test system: TK-10
[20] = test system: SK-MEL-5
[21] = test system: NCI-H226
[22] = test system: A549
[23] = test system: COLO 205
[24] = test system: M14
[25] = test system: OVCAR-5
[26] = test system: K562
[27] = test system: DU-145
[28] = test system: SK-OV-3
[29] = test system: SNB-75
[30] = test system: EKVX
[31] = test system: UACC-62
[32] = test system: T47D
[33] = test system: A498
[34] = test system: NCI/ADR-RES
[35] = test system: SF-539
[36] = test system: CAKI-1
[37] = test system: KM12
[38] = test system: RXF 393
[39] = test system: UO-31
[40] = test system: HCT-15
[41] = test system: HOP-92
[42] = test system: MCF7
[43] = test system: U-251
[44] = test system: SF-295
[45] = test system: LOX IMVI
[46] = test system: MDA-MB-435
[47] = test system: OVCAR-3
[48] = test system: IGROV-1
[49] = test system: SF-268
[50] = test system: SK-MEL-28
[51] = test system: RPMI-8226
[52] = test system: HCC 2998
[53] = test system: SNB-19
[54] = test system: HOP-62
[55] = test system: OVCAR-4
[56] = test system: PC-3
[57] = test system: NCI-H23
[58] = test system: CCRF-CEM

Measured: GI50

c1cc(-c2sc(-c3ccncc3)c(-c3ccncc3)c2-c2ccncc2)ccn1
18.5 µM: [40]
inactive: [1] 15.5 µM | [2] 12 µM | [3] 14.2 µM | [4] 24.4 µM | [5] 14.8 µM | [6] 12.9 µM | [7] 22.3 µM | [8] 17.6 µM | [9] 17.7 µM | [10] 10.8 µM | [11] 15.1 µM | [12] 13.6 µM | [13] 14.1 µM | [14] 13.8 µM | [15] 20.1 µM | [16] 18.7 µM | [17] 17 µM | [18] 17 µM | [19] 15.2 µM | [20] 14.7 µM | [21] 14.6 µM | [22] 17.2 µM | [23] 12.8 µM | [24] 16.5 µM | [25] 19.7 µM | [26] 28.2 µM | [27] 23 µM | [28] 20.9 µM | [29] 14 µM | [30] 13.1 µM | [31] 14.1 µM | [32] 32.4 µM | [33] 12.5 µM | [34] 22.9 µM | [35] 12.5 µM | [36] 36.9 µM | [37] 26 µM | [38] 16.3 µM | [39] 12.6 µM | [41] 11.4 µM | [42] 19.4 µM | [43] 14.1 µM | [44] 17.3 µM | [45] 13.6 µM | [46] 14.6 µM | [47] 16.9 µM | [48] 18.2 µM | [49] 15.2 µM | [50] 19.6 µM | [51] 33.9 µM | [52] 3.27 µM | [53] 18.4 µM | [54] 18.5 µM | [55] 33 µM | [56] 19.8 µM | [57] 16.1 µM

O=C(CSc1nnc(-c2ccccn2)s1)N/N=C/c1ccccc1
> 100 µM: [40]
inactive: [1] > 100 µM | [2] 63.5 µM | [3] > 100 µM | [4] > 100 µM | [5] 89.3 µM | [58] > 100 µM | [6] > 100 µM | [7] > 100 µM | [8] > 100 µM | [9] 97.7 µM | [10] > 100 µM | [11] > 100 µM | [12] > 100 µM | [13] 76.9 µM | [14] > 100 µM | [15] > 100 µM | [16] > 100 µM | [17] > 100 µM | [18] > 100 µM | [19] 89.1 µM | [20] > 100 µM | [21] > 100 µM | [22] > 100 µM | [23] > 100 µM | [24] > 100 µM | [25] > 100 µM | [26] > 100 µM | [27] > 100 µM | [28] > 100 µM | [29] 3.03 µM | [31] > 100 µM | [32] 46.8 µM | [33] > 100 µM | [34] > 100 µM | [35] > 100 µM | [36] > 100 µM | [37] > 100 µM | [39] 39.4 µM | [41] 86.7 µM | [42] > 100 µM | [43] 54.5 µM | [44] > 100 µM | [45] > 100 µM | [46] > 100 µM | [47] > 100 µM | [48] > 100 µM | [49] 48.9 µM | [50] > 100 µM | [53] > 100 µM | [54] 51.5 µM | [55] > 100 µM | [56] > 100 µM | [57] > 100 µM
